Test [1] deals with T1, HDAC4 (Homo sapiens, UniProt P56524).
T1 construct: purchased Reaction Biology Corp. KDA-21-279
In words: Enzyme HDAC inhibition assay, HDAC4. The test is classed as biochemical. The note with it: IC50 ± SEM; three experiments in duplicates; read-out: IC50 HDAC 4.
Source text: (§4) All human recombinant enzymes were purchased from Reaction Biology Corp. (Malvern, PA, USA).

Test [2] concerns class I/IIb HDAC activity in T47D cells. Put plainly: cells. The test is classed as cell-based, human. The note with it: 48 h, read-out: IC50 Cellular HDAC Assay. Here is the method:
The cellular HDAC assay was performed based on an assay published by Heltweg and Jung and Ciossek et al.. Breast cancer cell line T-47D (12,000 c/w) was seeded in 96-well tissue culture plates (Corning, Kaiserslautern, Germany) in a total volume of 90 µL of culture medium. After 24 h, cells were incubated 48 h with increasing concentrations of a-lipoic acid. The reaction was started by adding 10 µL of 3 mM Boc-Lys(Ac)-AMC (Bachem, Bubensdorf, Switzerland) and again incubated for 3 h under cell culture conditions. […]

Test [3] concerns MCF-7. Put plainly: MTT cell viability assay, MCF-7. The note with it: 120 h; IC50 ± SEM; read-out: IC50 MCF-7, 120 h MTT assay. The test is classed as cell-based, human. How it is done:
(§1) MTT assays were performed as previously described. […] After incubation time, medium was replaced by MTT (solution of 5 mg/mL 3-(4,5-dimethylthiazol-2-yl)-2,5-diphenyl-tetrazoliumbromidin in phosphate buffered saline, Serva, Heidelberg, Germany).
(Tetrazolium assays rely on reduction of a dye to a coloured formazan, in cell work by metabolically active cells.)

The test system of test [4] is T47D. Put plainly: MTT cell viability assay, T47D. To be noted: 120 h; IC50 ± SEM; read-out: IC50 T-47D, 120 h MTT assay. The test is classed as cell-based, human. Here is the method: as §1
The subject of test [5] is MDA-MB-231. Put plainly: MTT cell viability assay, MDA-MB-231. The test is classed as cell-based, human. To be noted: 120 h; IC50 ± SEM; read-out: IC50 MDA-MB-231, 120 h MTT assay. Here is the method: MTT assays were performed as previously described. Cell numbers plated differed depending on each incubation time: MDA-MB-231 5000 c/w, MCF-7 5000 c/w (72 h) and 3000 c/w (120 h), T-47D 10,000 c/w (72 h) and 5000 c/w /120 h). After incubation time, medium was replaced by MTT (solution of 5 mg/mL 3-(4,5-dimethylthiazol-2-yl)-2,5-diphenyl-tetrazoliumbromidin in phosphate buffered saline, Serva, Heidelberg, Germany). After 10 min (MCF-7), 20 min (MDA-MB-231), and 30 min (T47D) and dissolving in DMSO (VWR, Langenfeld, Germany), absorbance was measured at 544 nm and 690 nm in a FLUOstar microplate reader (BMG LabTech, Offenburg, Germany).

In test [6] the test system is HDAC2. The note with it: obtained by fitting Lechner et al. source data to a sigmoidal concentration–effect model; ref [21]; read-out: IC50 HDAC 2, Lechner et al.; cited from earlier work.
In test [7] the test system is HDAC6. To be noted: ref [21], cited from earlier work.
Test [8] concerns HDAC8. To be noted: ref [21], cited from earlier work; for IC50: obtained by fitting Lechner et al. source data to a sigmoidal concentration–effect model, read-out: IC50 HDAC 8, Lechner et al.
Test [9] has as its target HDAC2 (Homo sapiens, UniProt Q92769). Put plainly: Enzyme HDAC inhibition assay, HDAC2.
Source text: as §4
Test [10] deals with T2, HDAC6 (Homo sapiens, UniProt Q9UBN7).
T2 sequence (Q9UBN7 1-1215): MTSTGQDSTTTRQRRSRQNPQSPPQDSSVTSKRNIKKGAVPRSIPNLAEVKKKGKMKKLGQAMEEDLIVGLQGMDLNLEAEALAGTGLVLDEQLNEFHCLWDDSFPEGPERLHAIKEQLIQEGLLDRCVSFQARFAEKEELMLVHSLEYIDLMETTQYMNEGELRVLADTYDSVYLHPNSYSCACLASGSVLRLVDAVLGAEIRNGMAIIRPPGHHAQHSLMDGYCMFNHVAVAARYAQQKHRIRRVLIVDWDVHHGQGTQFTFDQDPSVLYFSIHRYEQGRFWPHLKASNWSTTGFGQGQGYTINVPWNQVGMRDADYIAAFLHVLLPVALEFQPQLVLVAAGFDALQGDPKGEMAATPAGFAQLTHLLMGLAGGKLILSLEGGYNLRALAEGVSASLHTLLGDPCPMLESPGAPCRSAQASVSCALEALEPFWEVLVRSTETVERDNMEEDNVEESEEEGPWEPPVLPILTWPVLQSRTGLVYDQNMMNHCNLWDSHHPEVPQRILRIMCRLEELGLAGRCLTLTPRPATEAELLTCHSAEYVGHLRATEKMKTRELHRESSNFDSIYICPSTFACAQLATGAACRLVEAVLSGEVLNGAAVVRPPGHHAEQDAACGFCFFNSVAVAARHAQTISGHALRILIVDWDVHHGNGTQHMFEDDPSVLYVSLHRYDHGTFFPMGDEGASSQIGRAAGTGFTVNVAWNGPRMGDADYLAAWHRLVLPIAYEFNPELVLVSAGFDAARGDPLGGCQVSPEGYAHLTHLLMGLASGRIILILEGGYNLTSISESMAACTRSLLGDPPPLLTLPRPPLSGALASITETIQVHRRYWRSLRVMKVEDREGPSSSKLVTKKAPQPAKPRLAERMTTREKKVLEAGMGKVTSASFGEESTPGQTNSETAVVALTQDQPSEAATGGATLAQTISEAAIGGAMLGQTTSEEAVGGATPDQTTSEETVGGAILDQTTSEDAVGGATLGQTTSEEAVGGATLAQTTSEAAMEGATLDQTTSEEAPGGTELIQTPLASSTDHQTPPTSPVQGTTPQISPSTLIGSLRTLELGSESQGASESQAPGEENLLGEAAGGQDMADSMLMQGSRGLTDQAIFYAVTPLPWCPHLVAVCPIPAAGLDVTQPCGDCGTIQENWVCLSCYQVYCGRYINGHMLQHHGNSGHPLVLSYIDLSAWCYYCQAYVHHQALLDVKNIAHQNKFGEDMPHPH
In words: Enzyme HDAC inhibition assay, HDAC6.
Source text: as §4

Test [11] has as its target T3, HDAC8 (Homo sapiens, UniProt Q9BY41).
T3 sequence (Q9BY41 1-377): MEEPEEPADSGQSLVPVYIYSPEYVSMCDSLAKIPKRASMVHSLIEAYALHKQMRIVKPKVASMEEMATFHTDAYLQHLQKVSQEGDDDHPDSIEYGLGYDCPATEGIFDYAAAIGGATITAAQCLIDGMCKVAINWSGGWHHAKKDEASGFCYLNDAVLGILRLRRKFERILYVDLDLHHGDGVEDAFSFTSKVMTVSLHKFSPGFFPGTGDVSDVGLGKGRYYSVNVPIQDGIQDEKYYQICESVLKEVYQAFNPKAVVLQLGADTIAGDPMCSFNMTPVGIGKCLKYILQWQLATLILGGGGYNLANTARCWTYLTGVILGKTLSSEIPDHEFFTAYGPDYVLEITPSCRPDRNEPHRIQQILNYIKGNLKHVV
In words: Enzyme HDAC inhibition assay, HDAC8.
Source text: as §4

Test [12] concerns caspase 3/7 in MCF-7 cells. Put plainly: Caspase 3/7 activation assay, MCF-7. It is filed as cell-based, human. To be noted: 0.5 mM or 1 mM, 24 h. Here is the method: (§2) To analyze the compound-induced activation of capases 3 and 7, the CellEvent caspase 3/7 green detection reagent (Thermo Scientific, Wesel, Germany) was used according to the manufacturer’s instructions. […] After 24 h incubation, medium was removed, and cells were stained with 50 µL of CellEvent caspase 3/7 green detection reagent (2 µM in PBS supplemented with 5% heat-inactivated FBS). Cells were incubated for 30 min at 37 °C in a humidified incubator before imaging by using the Thermo Fisher ArrayScan XTI high content screening (HCS) system with a 10× magnification (Thermo Scientific). Hoechst 33342 was added for nuclei staining.

In test [13] the test system is caspase 3/7 in T47D cells. Put plainly: Caspase 3/7 activation assay, T47D. The test is classed as cell-based, human. The note with it: 0.5 mM or 1 mM, 24 h. How it is done:
as §2

Test [14] has as its system MCF-7. In words: Immunoblotting, MCF-7. The test is classed as cell-based, human. The note with it: 48 h. How it is done:
(§3) A quantity of 20 or 40 µg of total protein as well as, from PageRuler Prestained Protein Ladder, 10–180 kDA (Thermo Scientific, Wesel, Germany), were resolved by SDS-Page (12% polyacrylamide gel) and transferred to polyvinylidene fluoride membrane (Millipore Corporation, Billerica, MA, USA). Blots were incubated with primary antibodies against acetylated a -tubulin (Cat. No. sc-23950), a -tubulin (Cat. No. sc-8035) (Santa Cruz Biotechnology, Heidelberg, Germany), acetyl histone h3 (Cat. No. 39140) and histone H3 (Cat. No. NB100-1669), ß-actine (Cat. No. sc-47778), p21 (AF1047), c-myk (Cat. No. MAB3696), APAF1 (Cat. No. MAB868), BIM (Cat. No. NBP1-76936), FOXO1 (Cat. No. C29H4), BCL-2 (Cat. No. AF810), and survivin (Cat. No. AF886). After another one-hour incubation with the appropriate HRP-conjugated secondary antibody, proteins were visualized by Intas Imager (Intas, Göttingen, Germany) using luminol reagent (Santa Cruz Biotechnology, Heidelberg, Germany).

Test [15] concerns T47D. Put plainly: Immunoblotting, T47D. The test is classed as cell-based, human. To be noted: 48 h. Here is the method: as §3
(In western blotting, separated proteins are transferred to a membrane and probed.)

Setting [16] is: obtained by fitting Lechner et al. source data to a sigmoidal concentration–effect model, read-out: IC50 HDAC 6, Lechner et al.

Where two headings read alike, the source gives them in different places.

The source of these data is paper PMC11313180 (International Journal of Molecular Sciences, 2024).

Sequence of HDAC2 (Homo sapiens, UniProt Q92769) (Q92769 whole entry): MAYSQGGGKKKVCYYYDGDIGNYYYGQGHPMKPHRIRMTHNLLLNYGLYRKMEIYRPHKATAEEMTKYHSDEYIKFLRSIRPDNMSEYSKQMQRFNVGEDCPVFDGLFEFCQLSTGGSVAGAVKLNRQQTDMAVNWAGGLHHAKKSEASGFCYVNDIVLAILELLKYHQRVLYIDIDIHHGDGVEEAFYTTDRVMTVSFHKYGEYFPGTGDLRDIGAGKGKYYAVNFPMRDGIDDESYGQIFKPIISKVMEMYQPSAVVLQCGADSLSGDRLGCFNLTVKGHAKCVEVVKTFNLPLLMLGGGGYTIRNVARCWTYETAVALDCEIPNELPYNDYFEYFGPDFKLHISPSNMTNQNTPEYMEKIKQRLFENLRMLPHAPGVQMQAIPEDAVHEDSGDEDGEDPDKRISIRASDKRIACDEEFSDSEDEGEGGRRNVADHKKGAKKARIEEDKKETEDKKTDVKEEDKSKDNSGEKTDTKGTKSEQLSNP
T1 sequence (P56524 whole entry): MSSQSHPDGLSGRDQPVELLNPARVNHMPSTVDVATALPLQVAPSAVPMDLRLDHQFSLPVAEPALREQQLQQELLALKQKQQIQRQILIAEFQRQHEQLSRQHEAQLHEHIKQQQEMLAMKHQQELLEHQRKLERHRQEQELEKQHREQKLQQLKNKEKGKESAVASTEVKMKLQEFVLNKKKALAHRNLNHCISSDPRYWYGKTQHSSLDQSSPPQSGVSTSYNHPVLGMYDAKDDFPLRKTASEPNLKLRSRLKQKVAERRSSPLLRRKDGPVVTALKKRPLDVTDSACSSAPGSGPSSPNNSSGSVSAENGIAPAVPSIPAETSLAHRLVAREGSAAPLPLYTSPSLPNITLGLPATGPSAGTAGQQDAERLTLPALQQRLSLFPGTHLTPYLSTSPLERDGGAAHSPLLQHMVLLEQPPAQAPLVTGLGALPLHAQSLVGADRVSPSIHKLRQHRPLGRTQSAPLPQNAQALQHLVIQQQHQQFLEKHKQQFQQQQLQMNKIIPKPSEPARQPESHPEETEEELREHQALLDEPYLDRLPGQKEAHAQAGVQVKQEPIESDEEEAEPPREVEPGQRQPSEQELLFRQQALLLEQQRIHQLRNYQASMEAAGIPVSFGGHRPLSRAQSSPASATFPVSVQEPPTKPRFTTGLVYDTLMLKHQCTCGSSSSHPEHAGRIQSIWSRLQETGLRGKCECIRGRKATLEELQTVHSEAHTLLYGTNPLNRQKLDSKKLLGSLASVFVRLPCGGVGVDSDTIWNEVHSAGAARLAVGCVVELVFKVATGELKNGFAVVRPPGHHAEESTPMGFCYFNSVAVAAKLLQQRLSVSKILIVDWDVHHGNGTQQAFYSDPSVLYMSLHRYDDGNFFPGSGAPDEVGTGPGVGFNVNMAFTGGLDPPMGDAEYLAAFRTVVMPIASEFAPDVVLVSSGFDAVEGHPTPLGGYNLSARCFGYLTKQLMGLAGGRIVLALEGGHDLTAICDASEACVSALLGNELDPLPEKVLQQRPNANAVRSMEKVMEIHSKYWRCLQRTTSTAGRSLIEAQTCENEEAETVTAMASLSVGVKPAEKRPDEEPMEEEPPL

On to `O=C(O)CCCCC1CCSS1` (racemic) [rac-α-lipoic acid], for which the IC50 is 262 ± 37.8 µM in test [1]; 1190 ± 67 µM in test [2] (T47D cells, substrate Boc-Lys-AC-AMC, IC50 ± SEM, one experiment in triplicates); 454 ± 15.2 µM in test [3]; 373 ± 13.9 µM in test [4]; 275 ± 22.5 µM in test [5]; 391 µM in test [6]. Further, the IC50 in [7] (setting [16]) is 191 µM; in [8], 109 µM; in test [9] (read-out: IC50 HDAC 2, IC50 ± SEM, three experiments in duplicates), 208 ± 4.2 µM; in [10] (read-out: IC50 HDAC 6, IC50 ± SEM, three experiments in duplicates), 15.3 ± 4.6 µM; in test [11] (read-out: IC50 HDAC 8, IC50 ± SEM, three experiments in duplicates), 464 ± 83 µM.
`O=C(O)CCCCC1CCSS1` (stereo not drawn) [α-lipoic acid]: the “caspase activation, MCF-7” value in test [12] is listed as 5–15%. In [13], the “caspase activation, T47D” value is reported as 5–15%. In test [14], the “expression of BCL-2, MCF-7” value is given as “loss or massive reduction in expression”. The “expression of BCL-2, T47D” value in test [15] is on record as “loss or massive reduction in expression”.
For `O=C(O)CCCCC(S)CCS` (racemic), the IC50 in [1] was 177 ± 17.5 µM; in test [6], 27.9 µM; in [7] (setting [16]), 1.7 µM; in [7] (read-out: IC50 at HDAC6 as reported by Lechner et al.), approximately 1 µM; in [8], 22.3 µM; in test [9] it was 98.1 ± 35.6 µM. For the same compound, the IC50 in test [10] turned out to be 6.48 ± 2.11 µM; in [11] it was 51.5 ± 10.5 µM. In test [7], the “more active than rac-α-lipoic acid at HDAC6, Lechner et al.'s study” value is given as “around 100 fold”. Moreover, the “more active than rac-α-lipoic acid at HDAC8, Lechner et al.'s study” value in [8] is given as “at least 5 fold”. In addition, the “HDAC6 preference (selectivity for HDAC6)” value in test [10] (versus HDAC2, 4 and 8, from Table 1) is reported as 8 fold.
In the case of `O=C(CCCCCCC(=O)Nc1ccccc1)NO` [vorinostat], the 50% inhibitory concentration (IC50) in test [2] (Homo sapiens, T47D) was 0.79 ± 0.07 µM.

In general, IC50 refers to the midpoint of a concentration-inhibition curve.
